Data set [1] in a line: refractive index (Na D-line) (dimensionless). The note with it: 298.15 K; 101.33 kPa; Liquid; Standard Abbe refractometry.
For data set [2] the following is noted: 298.15 K, 101.33 kPa, Liquid; for viscosity: Capillary tube (Ostwald / Ubbelohde) method; for speed of sound: Sing-around technique in a fixed-path interferometer; for mass density: Vibrating tube method.

Numbers after ± are expanded uncertainties.

As usually defined, the refractive index is a measure of how strongly the sample bends light. Usually viscosity stands for the internal friction of a fluid under shear. In general, speed of sound refers to the propagation velocity of pressure waves in the medium. One may read the mass density as the mass of a sample divided by its volume. As for `CN1CCCC1=O` [N-methylpyrrolidone], in data set [1], the refractive index is on record as 1.468 ± 0.0004. For the same molecule, in data set [2], the viscosity worked out at 1.681 ± 0.013 mPa·s, the speed of sound was found to be 1545.2 ± 1.9 m/s and the mass density was 1028.3 ± 0.5 kg/m3.

On to `CCO` [ethanol], for which the refractive index in data set [1] is 1.3595 ± 0.0004. Besides, in data set [2], the viscosity was 1.091 ± 0.008 mPa·s, the speed of sound amounted to 1144.2 ± 1.6 m/s and the mass density is recorded as 785.21 ± 0.42 kg/m3.

For the origin of these results see the NIST ThermoML archive (doi:10.1021/je201152j).
